According to US5679787A, “Process for isomerization of compound of aldose structure into compound of ketose structure, and isomerization agent or accelerator used therein” (priority 1992, dated 1997):

Key:
[1] = Isomerization without enzyme (Example 3), mannose; settings: remark (2): reaction time 6 h, initial pH 10.0-10.6; for Isomerization ratio Mannose NaOH: blank 3.9-19.5%; for Isomerization ratio Mannose Electrolytic water: blank 0.4-1.2%
[2] = Isomerization without enzyme (Example 3), lactose; settings: remark (3): reaction time 6 h, initial pH 10.0-11.0; for Isomerization ratio Lactose NaOH: blank 34.0-38.6%; for Isomerization ratio Lactose Electrolytic water: blank 0-0.4%
[3] = Isomerization without enzyme (Example 3), xylose; settings: remark (2): reaction time 6 h, initial pH 10.0-10.6; for Isomerization ratio Xylose NaOH: blank 3.9-19.5%; for Isomerization ratio Xylose Electrolytic water: blank 0.4-1.2%
Procedure: [The procedure below names another target; the source says it served here with some conditions changed.] (§1) 200 μl of the 14% or 28% glucose solution and 200 μl of the organogermanium compound solution (pH 8.00 or 8.53) were placed in a small test tube. Also, 200 μl of the 14% or 28% glucose solution and 200 μl of the weakly alkaline electrolytic water were placed in a small test tube. Each test tube was thoroughly shaken and then placed in a water bath of 80° C. to give rise to a reaction. 1-3 hours later, 50 μl of the reaction mixture was added to 50 μl of 0.5N HClO4 to terminate the reaction. Thereafter, the mixture was diluted 100-fold with deionized water to determine the amount of formed fructose and the amount of residual glucose by high-performance liquid chromatography using 7A (a column) manufactured by Shimadzu Corp.
Other compounds represented by formula (I) were subjected to 3-hour isomerization in the same manner as in Example 2.

[4] = Isomerization without enzyme (Example 3), maltose; settings: remark (3): reaction time 6 h, initial pH 10.0-11.0; for Isomerization ratio Maltose NaOH: blank 34.0-38.6%; for Isomerization ratio Maltose Electrolytic water: blank 0-0.4%
[5] = Isomerization without enzyme (Example 3), glucose; settings: remark (1): initial pH 8.0-8.53; for Isomerization ratio Glucose NaOH: blank 32.3%; for Isomerization ratio Glucose Electrolytic water: blank 2.1-3.1%
Procedure: as §1, with “1-3 hours later, 50 μl of the reaction mixture was added to 50 μl of 0.5N HClO4 to terminate the reaction.” left out, “Corp. […]” for “Corp.”

[6] = Isomerization without enzyme (Example 3), arabinose; settings: remark (2):, initial pH 10.0-10.6; for Isomerization ratio Arabinose NaOH: blank 3.9-19.5%; for Isomerization ratio Arabinose Electrolytic water: blank 0.4-1.2%
[7] = Isomerization without enzyme (Example 3), ribose; settings: remark (2): reaction time 6 h, initial pH 10.0-10.6; for Isomerization ratio Ribose NaOH: blank 3.9-19.5%; for Isomerization ratio Ribose Electrolytic water: blank 0.4-1.2%
glucose isomerase = assay: Enzymatic isomerization of glucose into fructose in presence of organogermanium compound (Example 1); format: biochemical, Streptomyces griseofuscus S-41; settings: 60° C., pH 8.0, substrate solution 40% glucose and 1.2M organogermanium compound, blank 50%
Procedure: A solution containing 40% glucose and 1.2M organogermanium compound was prepared according to the following procedure. 0.8 g of anhydrous glucose was dissolved in 0.8 ml of deionized water. To the solution was added, in small portions, 0.407 g of the organogermanium compound (1) as an isomerization accelerator of the present invention [a compound represented by formula (II) wherein n=1, R1 =R2 =R3 and X1 =OH] while the pH of the solution was maintained at very weak alkalinity, to completely dissolve the compound in the solution. Thereto was added 4.9 mg of magnesium sulfate, and the pH of the resulting mixture was adjusted to 8.0. Then, deionized water was added to make the total volume 2.0 ml, whereby a substrate solution was prepared.
Two other substrate solutions containing the organogermanium compounds (18) [a compound represented by formula (II) wherein n=1, R1 =R2 =H, R3 =NH2 and X1 =OH] and (23) [a compound represented by formula (II) wherein n=1, R1 =H, R2 =C6 H5, R3 =NH2 and X1 =OH], respectively, were prepared in the same manner as above except that the organogermanium compounds (18) and (23) were used in amounts of 0.443 g and 0.638 g, respectively (these amounts corresponded to 1.2M of germanium).
An isomerization enzyme (glucose isomerase) extracted from the cells of Streptomyces griseofuscus S-41 was purified according to a known method using an ion exchange column, a gel filtration column or the like, until a single band was obtained electrophoretically. The resulting purified enzyme was used as a standard enzyme.
In a small test tube were placed 0.7 ml of the above substrate solution, 0.1 ml of a 200 mM MOPS buffer solution (pH 8.0) and 0.2 ml of a solution containing the above-prepared standard enzyme (5.69 mg/ml). […] The amount of formed fructose in the microvial was determined by high-performance liquid chromatography using a column [LC7A, SCR-101 (N) manufactured by Shimadzu Corp.] to examine the change with time, of ratio of isomerization of glucose into fructose.

[8] = Isomerization of glucose without enzyme, weakly alkaline electrolytic water or NaOH (Example 2)
Procedure: Water was passed through an apparatus for electrolysis [e.g. Microcluster (trade name) manufactured by Asahi Glass Co., Ltd.]. The alkaline portion of the resulting electrolytic water was taken to use as a weakly alkaline electrolytic water.
14 g or 28 g of anhydrous glucose was dissolved in about 80 ml of the weakly alkaline electrolytic water prepared above. The same electrolytic water was further added to make the total volume 100 ml, whereby a 14% glucose solution and a 28% glucose solution were prepared. The 14% glucose solution had pH 9.1 and the 28% glucose solution had pH 8.61, right after the preparation.
1.847 g of the organogermanium compound (18) was weighed and added to about 2 ml of deionized water. The mixture was made weakly alkaline (pH 8.00 or 8.53) with a small amount of sodium hydroxide. The same deionized water was further added to make the total volume of 3 ml. The final concentration of the compound (18) in the solution was 1.67M.
as §1

C[CH](CC(=O)O)[Ge](=[O])[O][Ge](=[O])[CH](C)CC(=O)O (centres unmarked) [Compound 2]
Isomerization ratio Mannose NaOH [1]: 22.6% | Isomerization ratio Mannose Electrolytic water [1]: 11.4% | Isomerization ratio Lactose NaOH [2]: 68.3% | Isomerization ratio Lactose Electrolytic water [2]: 43.4% | Isomerization ratio Xylose NaOH [3]: 20.3% | Isomerization ratio Xylose Electrolytic water [3]: 7.2% | Isomerization ratio Maltose NaOH [4]: 67.4% | Isomerization ratio Maltose Electrolytic water [4]: 44.4% | Isomerization ratio Glucose NaOH [5]: 97.9% | Isomerization ratio Glucose Electrolytic water [5]: 95.8% | Isomerization ratio Arabinose NaOH [6]: 20.3% | Isomerization ratio Arabinose Electrolytic water [6]: 10.1% | Isomerization ratio Ribose NaOH [7]: 41.8% | Isomerization ratio Ribose Electrolytic water [7]: 12.8%

CC([CH2][Ge](=[O])[O][Ge](=[O])[CH2]C(C)C(=O)O)C(=O)O (centres unmarked) [Compound 3]
Isomerization ratio Mannose NaOH [1]: 21.3% | Isomerization ratio Mannose Electrolytic water [1]: 9.3% | Isomerization ratio Lactose NaOH [2]: 74.1% | Isomerization ratio Lactose Electrolytic water [2]: 28.9% | Isomerization ratio Xylose NaOH [3]: 24.5% | Isomerization ratio Xylose Electrolytic water [3]: 7.6% | Isomerization ratio Maltose NaOH [4]: 53.7% | Isomerization ratio Maltose Electrolytic water [4]: 43.7% | Isomerization ratio Glucose NaOH [5]: 96.3% | Isomerization ratio Glucose Electrolytic water [5]: 86.2% | Isomerization ratio Arabinose NaOH [6]: 18.5% | Isomerization ratio Arabinose Electrolytic water [6]: 10.2% | Isomerization ratio Ribose NaOH [7]: 30.0% | Isomerization ratio Ribose Electrolytic water [7]: 17.4%

CC(C(=O)O)[CH](C)[Ge](=[O])[O][Ge](=[O])[CH](C)C(C)C(=O)O (centres unmarked) [Compound 4]
Isomerization ratio Mannose NaOH [1]: 22.4% | Isomerization ratio Mannose Electrolytic water [1]: 10.6% | Isomerization ratio Lactose NaOH [2]: 66.4% | Isomerization ratio Lactose Electrolytic water [2]: 17.7% | Isomerization ratio Xylose NaOH [3]: 22.3% | Isomerization ratio Xylose Electrolytic water [3]: 7.0% | Isomerization ratio Maltose NaOH [4]: 46.5% | Isomerization ratio Maltose Electrolytic water [4]: 36.2% | Isomerization ratio Glucose NaOH [5]: 96.4% | Isomerization ratio Glucose Electrolytic water [5]: 77.6% | Isomerization ratio Arabinose NaOH [6]: 14.3% | Isomerization ratio Arabinose Electrolytic water [6]: 7.0% | Isomerization ratio Ribose NaOH [7]: 36.3% | Isomerization ratio Ribose Electrolytic water [7]: 10.3%

C[C](C)(CC(=O)O)[Ge](=[O])[O][Ge](=[O])[C](C)(C)CC(=O)O [Compound 5]
Isomerization ratio Mannose NaOH [1]: 20.5% | Isomerization ratio Mannose Electrolytic water [1]: 9.7% | Isomerization ratio Lactose NaOH [2]: 68.8% | Isomerization ratio Lactose Electrolytic water [2]: 17.2% | Isomerization ratio Xylose NaOH [3]: 20.3% | Isomerization ratio Xylose Electrolytic water [3]: 6.1% | Isomerization ratio Maltose NaOH [4]: 69.4% | Isomerization ratio Maltose Electrolytic water [4]: 38.4% | Isomerization ratio Glucose NaOH [5]: 93.4% | Isomerization ratio Glucose Electrolytic water [5]: 75.3% | Isomerization ratio Arabinose NaOH [6]: 17.8% | Isomerization ratio Arabinose Electrolytic water [6]: 3.4% | Isomerization ratio Ribose NaOH [7]: 37.6% | Isomerization ratio Ribose Electrolytic water [7]: 8.6%

O=C(O)C[CH](c1ccccc1)[Ge](=[O])[O][Ge](=[O])[CH](CC(=O)O)c1ccccc1 (centres unmarked) [Compound 6]
Isomerization ratio Mannose NaOH [1]: 22.8% | Isomerization ratio Mannose Electrolytic water [1]: 16.4% | Isomerization ratio Lactose NaOH [2]: 73.6% | Isomerization ratio Lactose Electrolytic water [2]: 15.5% | Isomerization ratio Xylose NaOH [3]: 33.2% | Isomerization ratio Xylose Electrolytic water [3]: 8.3% | Isomerization ratio Maltose NaOH [4]: 69.3% | Isomerization ratio Maltose Electrolytic water [4]: 20.0% | Isomerization ratio Glucose NaOH [5]: 94.8% | Isomerization ratio Glucose Electrolytic water [5]: 83.8% | Isomerization ratio Arabinose NaOH [6]: 24.4% | Isomerization ratio Arabinose Electrolytic water [6]: 13.4% | Isomerization ratio Ribose NaOH [7]: 40.1% | Isomerization ratio Ribose Electrolytic water [7]: 11.3%

NC([CH2][Ge](=[O])[O][Ge](=[O])[CH2]C(N)C(=O)O)C(=O)O (centres unmarked) [Compound 18]
isomerization ratio in equilibrium (glucose isomerase): 80% | Isomerization ratio (%) ([8]; Run 1 (Ge), glucose concentration 14%, pH of reaction mixture 7.17, electrolytic water, 80° C., 1-3 hours): 48.0% | Isomerization ratio (%) ([8]; Run 3 (Ge), glucose concentration 7%, pH of reaction mixture 7.52, electrolytic water, 80° C., 1-3 hours): 73.1% | Isomerization ratio (%) ([8]; Run 5 (Ge), glucose concentration 14%, pH of reaction mixture 7.81, electrolytic water, 80° C., 1-3 hours): 65.0% | Isomerization ratio (%) ([8]; Run 7 (Ge), glucose concentration 7%, pH of reaction mixture 8.15, electrolytic water, 80° C., 1-3 hours): 94.7% | Isomerization ratio (%) ([8]; Run 9 (Na, Ge), sodium hydroxide, glucose concentration 14%, pH of reaction mixture 8.61, 80° C.): 98.9%

NC(C(=O)O)[CH](c1ccccc1)[Ge](=[O])[O][Ge](=[O])[CH](c1ccccc1)C(N)C(=O)O (centres unmarked) [Compound 23]
isomerization ratio in equilibrium (glucose isomerase): 99%
